The source made the active and inactive calls. No cut-off for these calls is given here.
Columns and labels:
A2780 [1] = assay: Antiproliferative activity against human A2780 cells assessed as […] cell proliferation at 10 uM incubated for 48 hrs in presence of 2 uM of CDDP by WST-1 assay relative to control; format: functional
A2780 [2] = assay: Antiproliferative activity against human A2780 cells assessed as […] cell proliferation at 10 uM incubated for 48 hrs by WST-1 assay relative to control; format: functional
SAOS-2 [3] = assay: Antiproliferative activity against human SAOS-2 cells assessed as […] cell proliferation at 10 uM incubated for 48 hrs in presence of 15 uM of CDDP by WST-1 assay relative to control; format: functional
[4] = target: Protein kinase C alpha type (Homo sapiens) (UniProt P17252); assay: Inhibition of human PKCalpha assessed as residual activity at 10 uM relative to control
1321N1 [5] = assay: Chemo-sensitizing activity against human 1321N1 cells at 15 uM incubated for 48 hrs in presence of TMZ by MTT assay; format: functional, cell-based
[6] = target: Fibroblast growth factor receptor 3 (Homo sapiens) (UniProt P22607); assay: Inhibition of human FGFR3 assessed as residual activity at 10 uM relative to control
PANC-1 [7] = assay: Antiproliferative activity against human PANC-1 cells assessed as […] cell proliferation at 10 uM incubated for 48 hrs by WST-1 assay relative to control; format: functional
HeLa [8] = assay: Antiproliferative activity against human HeLa cells assessed as […] cell proliferation at 10 uM incubated for 48 hrs in presence of 15 uM of CDDP by WST-1 assay relative to control; format: functional
[9] = system: Mast/stem cell growth factor receptor Kit (Homo sapiens), P10721 [V560G]; assay: Inhibition of human cKit V560G mutant assessed as residual activity at 10 uM relative to control
[10] = target: Angiopoietin-1 receptor (Homo sapiens) (UniProt Q02763); assay: Inhibition of human Tie2 assessed as residual activity at 10 uM relative to control
MOLT-4 [11] = assay: Antiproliferative activity against human MOLT-4 cells assessed as […] cell proliferation at 10 uM incubated for 48 hrs by WST-1 assay relative to control; format: functional
GBM = assay: Cytotoxicity against patient-derived human GBM cells assessed as reduction in cell viability at 15 uM incubated for 48 hrs by MTT assay; format: functional
1321N1 [12] = assay: Cytotoxicity against human 1321N1 cells assessed as reduction in cell viability at 15 uM incubated for 48 hrs by MTT assay; format: functional, cell-based
SAOS-2 [13] = assay: Antiproliferative activity against human SAOS-2 cells assessed as […] cell proliferation at 10 uM incubated for 48 hrs by WST-1 assay relative to control; format: functional
A549 [14] = assay: Antiproliferative activity against human A549 cells assessed as […] cell proliferation at 10 uM incubated for 48 hrs by WST-1 assay relative to control; format: functional
MCF7 [15] = assay: Antiproliferative activity against human MCF7 cells assessed as […] cell proliferation at 10 uM incubated for 48 hrs in presence of 10 uM of CDDP by WST-1 assay relative to control; format: functional
MOLT-4 [16] = assay: Antiproliferative activity against human MOLT-4 cells assessed as […] cell proliferation at 10 uM incubated for 48 hrs in presence of 2 uM of CDDP by WST-1 assay relative to control; format: functional
HT-29 [17] = assay: Antiproliferative activity against human HT-29 cells assessed as […] cell proliferation at 10 uM incubated for 48 hrs in presence of 15 uM of CDDP by WST-1 assay relative to control; format: functional
Jurkat [18] = assay: Antiproliferative activity against human Jurkat cells assessed as […] cell proliferation at 10 uM incubated for 48 hrs in presence of 2 uM of CDDP by WST-1 assay relative to control; format: functional
[19] = target: Vascular endothelial growth factor receptor 3 (Homo sapiens) (UniProt P35916); assay: Inhibition of human FLT4 assessed as residual activity at 10 uM relative to control
A549 [20] = assay: Antiproliferative activity against human A549 cells assessed as […] cell proliferation at 10 uM incubated for 48 hrs in presence of 15 uM of CDDP by WST-1 assay relative to control; format: functional
[21] = target: Vascular endothelial growth factor receptor 1 (Homo sapiens) (UniProt P17948); assay: Inhibition of human FLT1 assessed as residual activity at 10 uM relative to control
[22] = target: T1, Cytoplasmic tyrosine-protein kinase BMX (Homo sapiens) (UniProt P51813); assay: Inhibition of human Bmx assessed as residual activity at 10 uM relative to control
T1 sequence (whole entry): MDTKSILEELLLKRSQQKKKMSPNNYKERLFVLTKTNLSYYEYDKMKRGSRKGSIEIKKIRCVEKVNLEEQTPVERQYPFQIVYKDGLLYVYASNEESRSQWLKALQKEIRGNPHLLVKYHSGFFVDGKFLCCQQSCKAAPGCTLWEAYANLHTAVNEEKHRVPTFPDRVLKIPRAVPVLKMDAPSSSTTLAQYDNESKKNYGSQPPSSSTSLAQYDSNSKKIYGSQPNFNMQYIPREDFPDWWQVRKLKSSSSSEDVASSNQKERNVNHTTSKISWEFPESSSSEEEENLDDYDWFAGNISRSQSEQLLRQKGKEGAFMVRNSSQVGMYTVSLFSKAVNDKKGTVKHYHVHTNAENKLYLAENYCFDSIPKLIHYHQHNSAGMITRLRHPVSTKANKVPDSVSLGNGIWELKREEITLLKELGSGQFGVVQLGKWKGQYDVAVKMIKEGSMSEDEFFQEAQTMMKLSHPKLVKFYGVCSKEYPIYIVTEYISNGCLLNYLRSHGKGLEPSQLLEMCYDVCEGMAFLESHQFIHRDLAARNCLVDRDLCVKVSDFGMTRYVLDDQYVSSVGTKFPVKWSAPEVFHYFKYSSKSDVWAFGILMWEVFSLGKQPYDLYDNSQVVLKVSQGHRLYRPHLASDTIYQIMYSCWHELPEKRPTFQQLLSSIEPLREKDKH

[23] = target: High affinity nerve growth factor receptor (Homo sapiens) (UniProt P04629); assay: Inhibition of human TrkA assessed as residual activity at 10 uM relative to control
[24] = target: Fibroblast growth factor receptor 2 (Homo sapiens) (UniProt P21802); assay: Inhibition of human FGFR2 assessed as residual activity at 10 uM relative to control
[25] = target: Vascular endothelial growth factor receptor 2 (Homo sapiens) (UniProt P35968); assay: Inhibition of human KDR assessed as residual activity at 10 uM relative to control
Jurkat [26] = assay: Antiproliferative activity against human Jurkat cells assessed as […] cell proliferation at 10 uM incubated for 48 hrs by WST-1 assay relative to control; format: functional
[27] = target: Proto-oncogene tyrosine-protein kinase receptor Ret (Homo sapiens) (UniProt P07949); assay: Inhibition of human Ret assessed as residual activity at 10 uM relative to control
PANC-1 [28] = assay: Antiproliferative activity against human PANC-1 cells assessed as […] cell proliferation at 10 uM incubated for 48 hrs in presence of 15 uM of CDDP by WST-1 assay relative to control; format: functional
[29] = target: T2, Aurora kinase A (Homo sapiens) (UniProt O14965); assay: Inhibition of human Aurora-A assessed as residual activity at 10 uM relative to control
T2 sequence (whole entry): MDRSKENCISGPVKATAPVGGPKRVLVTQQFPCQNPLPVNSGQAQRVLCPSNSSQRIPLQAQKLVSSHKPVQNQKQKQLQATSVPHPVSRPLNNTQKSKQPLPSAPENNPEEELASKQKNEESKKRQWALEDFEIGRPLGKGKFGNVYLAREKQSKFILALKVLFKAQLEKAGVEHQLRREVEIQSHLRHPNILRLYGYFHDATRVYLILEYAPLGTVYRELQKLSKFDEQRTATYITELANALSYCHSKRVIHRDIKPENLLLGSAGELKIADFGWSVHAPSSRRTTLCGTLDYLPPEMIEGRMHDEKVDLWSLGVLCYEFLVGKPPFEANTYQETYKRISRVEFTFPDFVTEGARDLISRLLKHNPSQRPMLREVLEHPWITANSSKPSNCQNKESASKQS

HT-29 [30] = assay: Antiproliferative activity against human HT-29 cells assessed as […] cell proliferation at 10 uM incubated for 48 hrs by WST-1 assay relative to control; format: functional
MCF7 [31] = assay: Antiproliferative activity against human MCF7 cells assessed as […] cell proliferation at 10 uM incubated for 48 hrs by WST-1 assay relative to control; format: functional
ATR/ATRIP (Homo sapiens) = ATR/ATRIP (Homo sapiens) (UniProt Q13535+Q8WXE1); assay: Inhibition of human ATR/ATRIP assessed as residual activity at 10 uM relative to control; format: protein-complex assay
HeLa [32] = assay: Antiproliferative activity against human HeLa cells assessed as […] cell proliferation at 10 uM incubated for 48 hrs by WST-1 assay relative to control; format: functional
[33] = target: Serine/threonine-protein kinase ATR (Homo sapiens, UniProt Q13535); assay: Binding affinity to ATR (unknown origin) assessed as inhibition constant
[34] = Chemo-sensitizing activity against human 1321N1 cells at 15 uM incubated for 48 hrs in presence of TMZ by MTT assay relative to control; format: functional

Sequence of ATR/ATRIP (Homo sapiens) (Q13535 whole entry, looked up): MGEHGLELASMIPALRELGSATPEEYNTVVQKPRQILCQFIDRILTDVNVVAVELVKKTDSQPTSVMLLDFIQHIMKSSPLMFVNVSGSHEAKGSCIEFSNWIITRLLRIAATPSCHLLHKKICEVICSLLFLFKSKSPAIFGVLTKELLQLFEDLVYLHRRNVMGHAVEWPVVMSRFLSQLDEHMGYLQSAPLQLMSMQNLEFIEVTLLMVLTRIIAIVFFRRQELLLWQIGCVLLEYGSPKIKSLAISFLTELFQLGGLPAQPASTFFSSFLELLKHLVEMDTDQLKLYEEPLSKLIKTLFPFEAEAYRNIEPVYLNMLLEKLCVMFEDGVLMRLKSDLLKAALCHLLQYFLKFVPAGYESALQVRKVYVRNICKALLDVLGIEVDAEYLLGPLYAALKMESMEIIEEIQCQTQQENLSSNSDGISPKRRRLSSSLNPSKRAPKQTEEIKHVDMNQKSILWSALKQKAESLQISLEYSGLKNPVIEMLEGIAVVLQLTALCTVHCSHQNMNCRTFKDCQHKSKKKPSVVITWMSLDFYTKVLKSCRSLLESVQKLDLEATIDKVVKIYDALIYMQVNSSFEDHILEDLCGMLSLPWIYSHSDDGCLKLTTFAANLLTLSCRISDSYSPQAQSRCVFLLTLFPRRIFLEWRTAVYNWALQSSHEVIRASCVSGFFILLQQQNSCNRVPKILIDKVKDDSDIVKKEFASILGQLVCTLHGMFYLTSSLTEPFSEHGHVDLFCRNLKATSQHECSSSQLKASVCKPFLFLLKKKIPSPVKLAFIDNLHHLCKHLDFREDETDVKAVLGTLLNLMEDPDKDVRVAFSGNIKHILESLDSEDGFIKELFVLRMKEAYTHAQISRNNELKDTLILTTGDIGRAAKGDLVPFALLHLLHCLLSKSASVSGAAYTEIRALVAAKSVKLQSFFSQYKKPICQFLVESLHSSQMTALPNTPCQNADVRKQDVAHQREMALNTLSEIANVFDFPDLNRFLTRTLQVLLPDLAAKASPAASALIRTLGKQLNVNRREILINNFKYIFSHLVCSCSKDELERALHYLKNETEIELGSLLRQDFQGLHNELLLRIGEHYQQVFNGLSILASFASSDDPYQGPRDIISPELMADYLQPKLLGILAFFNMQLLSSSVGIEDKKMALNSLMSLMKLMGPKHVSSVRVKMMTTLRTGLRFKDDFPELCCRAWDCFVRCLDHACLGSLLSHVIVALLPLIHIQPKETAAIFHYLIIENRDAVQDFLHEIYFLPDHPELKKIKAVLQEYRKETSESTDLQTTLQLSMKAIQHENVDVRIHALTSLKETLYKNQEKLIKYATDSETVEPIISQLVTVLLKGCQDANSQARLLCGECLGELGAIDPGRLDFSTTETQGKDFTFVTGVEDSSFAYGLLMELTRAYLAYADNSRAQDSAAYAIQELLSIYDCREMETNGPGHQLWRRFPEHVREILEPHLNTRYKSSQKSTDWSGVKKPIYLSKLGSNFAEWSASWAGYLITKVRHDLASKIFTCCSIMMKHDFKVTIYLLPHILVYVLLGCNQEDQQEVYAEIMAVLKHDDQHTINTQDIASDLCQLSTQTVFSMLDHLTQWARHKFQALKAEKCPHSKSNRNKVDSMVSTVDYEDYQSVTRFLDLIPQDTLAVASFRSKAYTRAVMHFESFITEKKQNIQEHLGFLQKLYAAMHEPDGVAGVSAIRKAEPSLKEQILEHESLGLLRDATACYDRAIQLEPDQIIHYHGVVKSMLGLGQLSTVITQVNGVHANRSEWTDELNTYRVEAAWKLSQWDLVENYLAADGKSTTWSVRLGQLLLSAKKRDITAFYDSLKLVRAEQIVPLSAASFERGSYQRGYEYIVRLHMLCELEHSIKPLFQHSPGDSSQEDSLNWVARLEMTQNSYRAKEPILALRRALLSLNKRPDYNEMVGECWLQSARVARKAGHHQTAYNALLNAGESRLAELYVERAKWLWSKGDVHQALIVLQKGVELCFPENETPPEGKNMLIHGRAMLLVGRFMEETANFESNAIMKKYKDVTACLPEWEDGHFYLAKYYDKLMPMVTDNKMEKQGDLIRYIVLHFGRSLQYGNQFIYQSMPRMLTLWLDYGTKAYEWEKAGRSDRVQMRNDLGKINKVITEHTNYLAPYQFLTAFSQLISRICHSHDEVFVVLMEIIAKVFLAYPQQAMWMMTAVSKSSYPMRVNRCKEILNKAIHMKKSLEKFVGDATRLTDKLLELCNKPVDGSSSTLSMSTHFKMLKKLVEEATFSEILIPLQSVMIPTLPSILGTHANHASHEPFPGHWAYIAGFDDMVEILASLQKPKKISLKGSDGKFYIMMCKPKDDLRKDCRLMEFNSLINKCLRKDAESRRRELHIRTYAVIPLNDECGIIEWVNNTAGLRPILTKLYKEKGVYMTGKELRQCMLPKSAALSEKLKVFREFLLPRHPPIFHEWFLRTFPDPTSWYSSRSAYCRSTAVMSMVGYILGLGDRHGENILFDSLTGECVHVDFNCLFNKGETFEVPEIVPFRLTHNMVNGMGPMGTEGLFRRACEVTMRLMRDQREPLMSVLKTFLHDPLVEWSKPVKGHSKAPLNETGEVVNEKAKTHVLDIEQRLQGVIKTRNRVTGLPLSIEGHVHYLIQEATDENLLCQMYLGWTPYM
Sequence of ATR/ATRIP (Homo sapiens) (Q8WXE1 whole entry, looked up): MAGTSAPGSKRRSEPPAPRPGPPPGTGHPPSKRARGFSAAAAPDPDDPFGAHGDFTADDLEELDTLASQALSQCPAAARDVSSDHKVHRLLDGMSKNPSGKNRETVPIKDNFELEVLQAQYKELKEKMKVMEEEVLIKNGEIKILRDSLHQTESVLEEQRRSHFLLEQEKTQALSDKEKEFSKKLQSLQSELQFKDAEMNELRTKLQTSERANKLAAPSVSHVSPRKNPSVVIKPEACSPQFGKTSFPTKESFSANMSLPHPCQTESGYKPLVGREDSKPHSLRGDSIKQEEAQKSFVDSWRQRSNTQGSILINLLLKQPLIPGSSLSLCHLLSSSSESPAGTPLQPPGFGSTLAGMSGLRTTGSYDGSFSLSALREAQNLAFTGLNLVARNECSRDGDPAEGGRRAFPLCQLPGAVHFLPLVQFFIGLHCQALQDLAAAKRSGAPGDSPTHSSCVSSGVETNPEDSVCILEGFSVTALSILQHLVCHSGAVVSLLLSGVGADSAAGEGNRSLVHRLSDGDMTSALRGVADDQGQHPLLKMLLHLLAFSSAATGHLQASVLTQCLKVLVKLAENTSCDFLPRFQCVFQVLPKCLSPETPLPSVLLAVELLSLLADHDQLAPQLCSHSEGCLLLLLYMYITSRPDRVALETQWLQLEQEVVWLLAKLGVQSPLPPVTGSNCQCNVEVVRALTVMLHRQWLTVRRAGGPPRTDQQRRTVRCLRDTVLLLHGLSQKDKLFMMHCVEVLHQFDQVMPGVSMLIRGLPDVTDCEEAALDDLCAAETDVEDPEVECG
Sequence of Proto-oncogene tyrosine-protein kinase receptor Ret (Homo sapiens) (P07949 whole entry): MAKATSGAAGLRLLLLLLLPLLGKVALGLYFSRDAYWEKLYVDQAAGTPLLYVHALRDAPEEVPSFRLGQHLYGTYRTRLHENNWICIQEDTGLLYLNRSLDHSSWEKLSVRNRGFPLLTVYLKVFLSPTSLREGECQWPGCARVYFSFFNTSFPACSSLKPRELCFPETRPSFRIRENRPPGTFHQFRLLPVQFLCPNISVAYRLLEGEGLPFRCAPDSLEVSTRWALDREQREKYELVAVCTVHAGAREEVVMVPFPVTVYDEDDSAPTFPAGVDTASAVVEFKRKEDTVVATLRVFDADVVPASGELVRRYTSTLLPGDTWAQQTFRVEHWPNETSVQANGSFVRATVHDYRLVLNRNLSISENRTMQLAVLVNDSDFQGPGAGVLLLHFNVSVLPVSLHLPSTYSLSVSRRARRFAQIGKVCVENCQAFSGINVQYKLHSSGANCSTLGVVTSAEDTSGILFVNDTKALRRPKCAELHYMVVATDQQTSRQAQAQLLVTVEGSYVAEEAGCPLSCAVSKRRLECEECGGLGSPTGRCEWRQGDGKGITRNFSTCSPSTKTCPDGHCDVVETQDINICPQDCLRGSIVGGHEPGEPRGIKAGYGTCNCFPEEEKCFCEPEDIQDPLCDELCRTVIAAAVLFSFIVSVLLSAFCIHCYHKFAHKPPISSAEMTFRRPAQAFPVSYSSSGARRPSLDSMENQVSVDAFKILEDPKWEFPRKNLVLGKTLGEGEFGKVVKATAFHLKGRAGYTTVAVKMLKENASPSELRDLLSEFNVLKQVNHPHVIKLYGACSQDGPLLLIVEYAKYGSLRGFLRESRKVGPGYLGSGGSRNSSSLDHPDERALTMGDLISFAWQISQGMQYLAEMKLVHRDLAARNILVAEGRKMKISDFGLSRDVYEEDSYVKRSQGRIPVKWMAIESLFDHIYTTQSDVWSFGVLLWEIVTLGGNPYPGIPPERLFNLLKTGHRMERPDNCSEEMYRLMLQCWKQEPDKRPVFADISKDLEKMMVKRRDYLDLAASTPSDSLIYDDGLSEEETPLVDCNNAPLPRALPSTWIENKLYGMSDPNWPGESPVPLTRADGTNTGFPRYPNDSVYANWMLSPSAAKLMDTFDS
Sequence of Serine/threonine-protein kinase ATR (Q13535 whole entry): as the sequence (Q13535 whole entry, looked up) above

Structure (SMILES)	Activity (A2780 [1]) [%]	Activity (A2780 [2]) [%]	Activity (SAOS-2 [3]) [%]	Activity (PANC-1 [7]) [%]	Activity (HeLa [8]) [%]	Activity (MOLT-4 [11]) [%]	Activity (GBM)	Activity (1321N1 [12])	Activity (SAOS-2 [13]) [%]	Activity (A549 [14]) [%]	Activity (MCF7 [15]) [%]	Activity (MOLT-4 [16]) [%]	Activity (HT-29 [17]) [%]	Activity (Jurkat [18]) [%]	Activity (A549 [20]) [%]	Activity (Jurkat [26]) [%]	Activity (PANC-1 [28]) [%]	Cell viability relative to control (HT-29 [30]) [%]	Activity (MCF7 [31]) [%]	Activity (HeLa [32]) [%]	other results
CCN1CCN(C2CCN(Cc3c[nH]c4ncc(-c5ccc(S(=O)(=O)C(C)C)cc5)cc34)CC2)CC1	46	87	46	87	46	87	Active	Active	87	87	46	46	46	46	46	87	46	87	87	87	Activity [4]: 88%; Activity (1321N1 [5]): Active; Activity [6]: 92%; Activity [9]: 83%; Activity [10]: 84%; Activity [19]: 80%; Activity [21]: 81%; Activity [22]: 97%; Activity [23]: 82%; Activity [24]: 108%; Activity [25]: 91%; Activity [27]: 129%; Activity [29]: 86%; Activity (ATR/ATRIP (Homo sapiens)): 96%
CC(C)S(=O)(=O)c1ccc(-c2cnc3[nH]cc(C(=O)N4CCC(c5ccccc5)CC4)c3c2)cc1	28	30	28	30	28	30	Active	Active	30	30	28	28	28	28	28	30	28	30	30	30	Activity [4]: 90%; Activity [6]: 60%; Activity [9]: 30%; Activity [10]: 57%; Activity [19]: 10%; Activity [21]: 49%; Activity [22]: 56%; Activity [23]: 42%; Activity [24]: 57%; Activity [25]: 52%; Activity [27]: 16%; Activity [29]: 45%; Activity (ATR/ATRIP (Homo sapiens)): 91%
Nc1nn2cc(F)cnc2c1C(=O)Nc1cncc(F)c1N1CCC(C(=O)N2CCN(C3COC3)CC2)CC1 [M4344]																					Ki [33]: < 0.2 nM
CC(C)S(=O)(=O)c1ccc(-c2cnc3[nH]cc(CN4CCC(c5ccccc5)CC4)c3c2)cc1	46	77	46	77	46	77	Active	Active	77	77	46	46	46	46	46	77	46	77	77	77	Activity [34]: 100%
CC(C)S(=O)(=O)c1ccc(-c2cnc3[nH]nc(C(=O)N4CCC(c5ccccc5)CC4)c3c2)cc1	49	79	49	79	49	79	50%	Active	79	79	49	49	49	49	49	79	49	79	79	79	Activity [4]: 59%; Activity (1321N1 [5]): Active; Activity [6]: 90%; Activity [9]: 89%; Activity [10]: 70%; Activity [19]: 39%; Activity [21]: 61%; Activity [22]: 98%; Activity [23]: 108%; Activity [24]: 105%; Activity [25]: 73%; Activity [27]: 77%; Activity [29]: 80%; Activity (ATR/ATRIP (Homo sapiens)): 59%

Source: ChEMBL document CHEMBL5113478, “7-Azaindole, 2,7-diazaindole, and 1H-pyrazole as core structures for novel anticancer agents with potential chemosensitizing properties” (Eur J Med Chem, 2022)
